From the NIST ThermoML archive (doi:10.1016/j.jct.2004.04.004)
Numbers after ± are expanded uncertainties.

Columns and labels:
[1] = 298.15 K; 101.33 kPa; Liquid
[2] = refractive index (Na D-line) (dimensionless); conditions: 293.15 K; 101.33 kPa; Liquid; Standard Abbe refractometry

| Compound | mass density [1] | refractive index [2] |
| --- | --- | --- |
| C[S+](C)[O-] [dimethyl sulfoxide] | 1095.62 ± 0.39 kg/m3 | 1.4785 ± 0.0007 |
| Cc1ccccc1C [1,2-dimethylbenzene] | 875.73 ± 0.44 kg/m3 | 1.5057 ± 0.0007 |
| Cc1cccc(C)c1 [1,3-dimethylbenzene] | 859.83 ± 0.99 kg/m3 | 1.4973 ± 0.0008 |
| Cc1ccc(C)cc1 [1,4-dimethylbenzene] | 856.58 ± 0.63 kg/m3 | 1.49577 ± 0.00075 |
